Laboratory results published in PubChem BioAssay (NCI).
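Grown in 96-well plates, cells were treated for 48 hours with each compound at five concentrations. Insufficient inhibition: endpoint recorded as highest concentration tested. Abbreviation: GI50, concentration required for 50% inhibition of growth. The concentration for full growth arrest is given as TGI.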

Experiments:
Experiment in all cases: DTP human tumour cell line panel, 48 h
786-0 renal = tested on: 786-0 renal
A498 renal = tested on: A498 renal
A549 NSCLC = tested on: A549 NSCLC
ACHN renal = tested on: ACHN renal
BT-549 breast = tested on: BT-549 breast
CAKI-1 renal = tested on: CAKI-1 renal
CCRF-CEM leukemia = tested on: CCRF-CEM leukemia
COLO 205 colon = tested on: COLO 205 colon
DU-145 prostate = tested on: DU-145 prostate
EKVX NSCLC = tested on: EKVX NSCLC
HCC-2998 colon = tested on: HCC-2998 colon
HCT-116 colon = tested on: HCT-116 colon
HCT-15 colon = tested on: HCT-15 colon
HL-60(TB) leukemia = tested on: HL-60(TB) leukemia
HOP-62 NSCLC = tested on: HOP-62 NSCLC
HOP-92 NSCLC = tested on: HOP-92 NSCLC
HS 578T breast = tested on: HS 578T breast
HT29 colon = tested on: HT29 colon
IGROV1 ovarian = tested on: IGROV1 ovarian
K-562 leukemia = tested on: K-562 leukemia
KM12 colon = tested on: KM12 colon
LOX IMVI melanoma = tested on: LOX IMVI melanoma
M14 melanoma = tested on: M14 melanoma
MALME-3M melanoma = tested on: MALME-3M melanoma
MCF7 breast = tested on: MCF7 breast
MDA-MB-231 breast = tested on: MDA-MB-231 breast
MDA-MB-435 = tested on: MDA-MB-435
MOLT-4 leukemia = tested on: MOLT-4 leukemia
NCI-H226 lung = tested on: NCI-H226 lung
NCI-H23 lung = tested on: NCI-H23 lung
NCI-H460 lung = tested on: NCI-H460 lung
NCI-H522 lung = tested on: NCI-H522 lung
NCI/ADR-RES ovarian = tested on: NCI/ADR-RES ovarian
OVCAR-3 ovarian = tested on: OVCAR-3 ovarian
OVCAR-4 ovarian = tested on: OVCAR-4 ovarian
OVCAR-5 ovarian = tested on: OVCAR-5 ovarian
OVCAR-8 ovarian = tested on: OVCAR-8 ovarian
PC-3 prostate = tested on: PC-3 prostate
RPMI-8226 leukemia = tested on: RPMI-8226 leukemia
RXF 393 renal = tested on: RXF 393 renal
SF-268 CNS = tested on: SF-268 CNS
SF-295 CNS = tested on: SF-295 CNS
SF-539 CNS = tested on: SF-539 CNS
SK-MEL-2 melanoma = tested on: SK-MEL-2 melanoma
SK-MEL-28 melanoma = tested on: SK-MEL-28 melanoma
SK-MEL-5 melanoma = tested on: SK-MEL-5 melanoma
SK-OV-3 ovarian = tested on: SK-OV-3 ovarian
SN12C renal = tested on: SN12C renal
SNB-19 CNS = tested on: SNB-19 CNS
SNB-75 CNS = tested on: SNB-75 CNS
SR leukemia = tested on: SR leukemia
SW-620 colon = tested on: SW-620 colon
T-47D breast = tested on: T-47D breast
TK-10 renal = tested on: TK-10 renal
U251 CNS = tested on: U251 CNS
UACC-257 melanoma = tested on: UACC-257 melanoma
UACC-62 melanoma = tested on: UACC-62 melanoma
UO-31 renal = tested on: UO-31 renal

C=C1C(=O)OC2CC(C)C(C(CC(C)=O)OC(C)=O)=CCC12 (stereo unspecified) was tested, and the TGI (786-0 renal) was 9.65 µM, the TGI (A498 renal) was 39.4 µM and the TGI (A549 NSCLC) was over 76.2 µM. For the same compound, the TGI (ACHN renal) was 22.4 µM, the TGI (BT-549 breast) was 15.2 µM and the TGI (CAKI-1 renal) was 8.05 µM. It also gave a TGI (CCRF-CEM leukemia) of over 35 µM, a TGI (COLO 205 colon) of 21.2 µM and a TGI (DU-145 prostate) of 30.1 µM. The TGI (EKVX NSCLC) was 26.6 µM, the TGI (HCC-2998 colon) was 24.1 µM and the TGI (HCT-116 colon) was 4.21 µM. The TGI (HCT-15 colon) was 7.96 µM, the TGI (HL-60(TB) leukemia) was over 29.3 µM and the TGI (HOP-62 NSCLC) was 46.9 µM. For the same compound, the TGI (HOP-92 NSCLC) was 21.2 µM, the TGI (HS 578T breast) was over 100 µM and the TGI (HT29 colon) was 22 µM. For the same compound, the TGI (IGROV1 ovarian) was 29 µM, the TGI (K-562 leukemia) was 17.9 µM and the TGI (KM12 colon) was 37.2 µM. It also gave a TGI (LOX IMVI melanoma) of 18.8 µM, a TGI (M14 melanoma) of 36.9 µM and a TGI (MALME-3M melanoma) of 3.97 µM. It also gave a TGI (MCF7 breast) of 18.2 µM, a TGI (MDA-MB-231 breast) of 27.2 µM and a TGI (MDA-MB-435) of 33 µM. The TGI (MOLT-4 leukemia) was 20.4 µM, the TGI (NCI-H226 lung) was over 66.4 µM and the TGI (NCI-H23 lung) was 34.3 µM. It also gave a TGI (NCI-H460 lung) of 41.9 µM, a TGI (NCI-H522 lung) of 3.27 µM and a TGI (NCI/ADR-RES ovarian) of over 45 µM. It also gave a TGI (OVCAR-3 ovarian) of 20.3 µM, a TGI (OVCAR-4 ovarian) of 34.2 µM and a TGI (OVCAR-5 ovarian) of 31.6 µM. The TGI (OVCAR-8 ovarian) was over 51.8 µM, the TGI (PC-3 prostate) was 41.8 µM and the TGI (RPMI-8226 leukemia) was 21.6 µM. For the same compound, the TGI (RXF 393 renal) was 32.2 µM, the TGI (SF-268 CNS) was 74.5 µM and the TGI (SF-295 CNS) was 62 µM. It also gave a TGI (SF-539 CNS) of 69.3 µM, a TGI (SK-MEL-2 melanoma) of 40.8 µM and a TGI (SK-MEL-28 melanoma) of 24.1 µM. For the same compound, the TGI (SK-MEL-5 melanoma) was 32 µM, the TGI (SK-OV-3 ovarian) was over 100 µM and the TGI (SN12C renal) was 15 µM. It also gave a TGI (SNB-19 CNS) of over 74.9 µM, a TGI (SNB-75 CNS) of 54.2 µM and a TGI (SR leukemia) of 15.5 µM. The TGI (SW-620 colon) was 10.6 µM, the TGI (T-47D breast) was 42 µM and the TGI (TK-10 renal) was 31.1 µM. For the same compound, the TGI (U251 CNS) was 29.6 µM, the TGI (UACC-257 melanoma) was 37.4 µM and the TGI (UACC-62 melanoma) was 25.4 µM. It also gave a TGI (UO-31 renal) of 29.7 µM.
In the case of COc1ccc(/C=C\[N+](=O)[O-])cc1OC, the GI50 (786-0 renal) is reported as 1.9 µM, the TGI (786-0 renal) is reported as 3.87 µM and the GI50 (A549 NSCLC) is reported as 1.94 µM. For the same compound, the TGI (A549 NSCLC) was 4.97 µM, the GI50 (ACHN renal) was 3.68 µM and the TGI (ACHN renal) was 13.9 µM. For the same compound, the GI50 (BT-549 breast) was 2.26 µM, the TGI (BT-549 breast) was 5.21 µM and the GI50 (CAKI-1 renal) was 1.8 µM. The TGI (CAKI-1 renal) was 4.84 µM, the GI50 (CCRF-CEM leukemia) was 3.2 µM and the TGI (CCRF-CEM leukemia) was 22.7 µM. It also gave a GI50 (COLO 205 colon) of 5.1 µM, a TGI (COLO 205 colon) of 18 µM and a GI50 (DU-145 prostate) of 3.1 µM. For the same compound, the TGI (DU-145 prostate) was 11.9 µM, the GI50 (EKVX NSCLC) was 15.6 µM and the TGI (EKVX NSCLC) was 38.1 µM. It also gave a GI50 (HCT-116 colon) of 1.37 µM, a TGI (HCT-116 colon) of 2.85 µM and a GI50 (HCT-15 colon) of 2.19 µM. For the same compound, the TGI (HCT-15 colon) was 6.45 µM, the GI50 (HL-60(TB) leukemia) was 2.94 µM and the TGI (HL-60(TB) leukemia) was 7.79 µM. For the same compound, the GI50 (HOP-62 NSCLC) was 12 µM, the TGI (HOP-62 NSCLC) was 29.2 µM and the GI50 (HOP-92 NSCLC) was 12.4 µM. The TGI (HOP-92 NSCLC) was 48.4 µM, the GI50 (HS 578T breast) was 2.92 µM and the TGI (HS 578T breast) was 24.7 µM. The GI50 (HT29 colon) was 1.87 µM, the TGI (HT29 colon) was 5.87 µM and the GI50 (IGROV1 ovarian) was 1.82 µM. For the same compound, the TGI (IGROV1 ovarian) was 4.46 µM, the GI50 (K-562 leukemia) was 2.36 µM and the TGI (K-562 leukemia) was over 100 µM. The GI50 (KM12 colon) was 2.73 µM, the TGI (KM12 colon) was 7.54 µM and the GI50 (LOX IMVI melanoma) was 1.66 µM. For the same compound, the TGI (LOX IMVI melanoma) was 3.45 µM, the GI50 (M14 melanoma) was 1.82 µM and the TGI (M14 melanoma) was 4.18 µM. The GI50 (MALME-3M melanoma) was 22.6 µM, the TGI (MALME-3M melanoma) was 43.5 µM and the GI50 (MCF7 breast) was 3.05 µM. It also gave a TGI (MCF7 breast) of 15.9 µM, a GI50 (MDA-MB-231 breast) of 3.73 µM and a TGI (MDA-MB-231 breast) of 13.1 µM. It also gave a GI50 (MDA-MB-435) of 2.46 µM, a TGI (MDA-MB-435) of 9.38 µM and a GI50 (MOLT-4 leukemia) of 4.1 µM. It also gave a TGI (MOLT-4 leukemia) of 38 µM, a GI50 (NCI-H226 lung) of 22.9 µM and a TGI (NCI-H226 lung) of 88.8 µM. The GI50 (NCI-H23 lung) was 2.24 µM, the TGI (NCI-H23 lung) was 6.52 µM and the GI50 (NCI-H460 lung) was 4.99 µM. The TGI (NCI-H460 lung) was 21.2 µM, the GI50 (NCI/ADR-RES ovarian) was 7.08 µM and the TGI (NCI/ADR-RES ovarian) was 36.8 µM. It also gave a GI50 (OVCAR-3 ovarian) of 3 µM, a TGI (OVCAR-3 ovarian) of 8.73 µM and a GI50 (OVCAR-4 ovarian) of 14 µM. For the same compound, the TGI (OVCAR-4 ovarian) was 27.5 µM, the GI50 (OVCAR-5 ovarian) was 4.51 µM and the TGI (OVCAR-5 ovarian) was 19.3 µM. It also gave a GI50 (OVCAR-8 ovarian) of 2.84 µM, a TGI (OVCAR-8 ovarian) of 11.1 µM and a GI50 (PC-3 prostate) of 3.01 µM. For the same compound, the TGI (PC-3 prostate) was 8.85 µM, the GI50 (RPMI-8226 leukemia) was 2.06 µM and the TGI (RPMI-8226 leukemia) was 5.28 µM. The GI50 (RXF 393 renal) was 1.81 µM, the TGI (RXF 393 renal) was 3.43 µM and the GI50 (SF-268 CNS) was 5.88 µM. For the same compound, the TGI (SF-268 CNS) was 20.5 µM, the GI50 (SF-295 CNS) was 12.2 µM and the TGI (SF-295 CNS) was 33.9 µM. The GI50 (SK-MEL-2 melanoma) was 2.64 µM, the TGI (SK-MEL-2 melanoma) was 7.39 µM and the GI50 (SK-MEL-28 melanoma) was 3.53 µM. The TGI (SK-MEL-28 melanoma) was 13 µM, the GI50 (SK-MEL-5 melanoma) was 3.72 µM and the TGI (SK-MEL-5 melanoma) was 14.4 µM. The GI50 (SK-OV-3 ovarian) was 13.4 µM, the TGI (SK-OV-3 ovarian) was 26.2 µM and the GI50 (SN12C renal) was 3.06 µM. It also gave a TGI (SN12C renal) of 13.2 µM, a GI50 (SNB-19 CNS) of 9.75 µM and a TGI (SNB-19 CNS) of 25.1 µM. For the same compound, the GI50 (SNB-75 CNS) was 10.6 µM, the TGI (SNB-75 CNS) was 29.8 µM and the GI50 (SR leukemia) was 2.38 µM. The TGI (SR leukemia) was 7.99 µM, the GI50 (SW-620 colon) was 1.9 µM and the TGI (SW-620 colon) was 4.9 µM. For the same compound, the GI50 (T-47D breast) was 7.6 µM, the TGI (T-47D breast) was 38.2 µM and the GI50 (TK-10 renal) was 3.55 µM. It also gave a TGI (TK-10 renal) of 15.7 µM, a GI50 (U251 CNS) of 1.5 µM and a TGI (U251 CNS) of 4.72 µM. For the same compound, the GI50 (UACC-257 melanoma) was 0.919 µM, the TGI (UACC-257 melanoma) was 3.38 µM and the GI50 (UACC-62 melanoma) was 2.62 µM. For the same compound, the TGI (UACC-62 melanoma) was 12.3 µM, the GI50 (UO-31 renal) was 1.85 µM and the TGI (UO-31 renal) was 3.87 µM.
